We go through five compounds from ChEMBL document CHEMBL5150022, “Small Molecule Inhibitors of Lymphocyte Perforin as Focused Immunosuppressants for Infection and Autoimmunity” (J Med Chem, 2022).

Assay [1] concerns the target Perforin-1 (Mus musculus) (UniProt P10820). As to the kind of experiment: Inhibition of recombinant Perforin-1 (mouse).
The target is the same in assay [2]. The experiment in a line: Inhibition of Perforin-1 in human Jurkat cells.

Chain of Perforin-1 (Mus musculus) (P10820 whole entry, looked up): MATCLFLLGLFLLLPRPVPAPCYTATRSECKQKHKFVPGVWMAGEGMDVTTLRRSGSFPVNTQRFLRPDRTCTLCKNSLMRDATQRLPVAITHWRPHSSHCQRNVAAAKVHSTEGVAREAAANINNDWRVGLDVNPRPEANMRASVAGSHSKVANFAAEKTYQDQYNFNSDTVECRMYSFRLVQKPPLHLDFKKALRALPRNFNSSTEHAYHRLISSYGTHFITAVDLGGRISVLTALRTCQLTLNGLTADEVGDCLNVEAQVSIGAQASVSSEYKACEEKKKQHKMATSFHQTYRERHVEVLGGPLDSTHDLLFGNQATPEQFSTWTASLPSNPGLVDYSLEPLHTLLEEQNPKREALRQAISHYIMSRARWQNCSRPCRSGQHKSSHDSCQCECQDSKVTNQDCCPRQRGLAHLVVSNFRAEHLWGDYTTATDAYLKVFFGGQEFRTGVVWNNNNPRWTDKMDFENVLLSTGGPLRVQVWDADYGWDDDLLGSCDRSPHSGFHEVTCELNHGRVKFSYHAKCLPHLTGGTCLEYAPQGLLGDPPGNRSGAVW

Regarding `Cc1ccc2c(c1)C(c1ccc(-c3cncc(NS(=O)(=O)c4ccc(F)cc4F)c3)s1)N(C)C2=O` (stereo not given), in assay [1], the IC50 is greater than 20 µM.

Regarding `Cc1cc2c(c(=S)[nH]1)C(=O)O/C2=C\c1ccc(C)o1`, the IC50 in assay [2] came to 2.7 µM. Turning to `O=C1NCCc2cc(-c3ccc(-c4cncc(NS(=O)(=O)c5ccc(F)cc5F)c4)s3)ccc21`, the IC50 in assay [1] was greater than 20 µM. Same read-out and setting: as for `O=C1NCCc2ccc(-c3ccc(-c4cncc(NS(=O)(=O)c5ccc(F)cc5F)c4)s3)cc21`, the figure is greater than 20 µM. The same measure, in the same setting: as for `CN1CCc2cc(-c3ccc(-c4cncc(NS(=O)(=O)c5ccc(F)cc5F)c4)s3)ccc2C1=O`, the figure is greater than 20 µM.
